Blank lines part the entries; values can stand above or below the molecule they belong to. Ends that are not written are not given here.
How the values were obtained:
[1] = test system: anti-LKM antibodies (LKM-positive sera); assay: ELISA test of cytochrome P450 IID6 peptides with human sera; format: binding; details: for number of patients whose sera recognize the peptide: tested by ELISA and immunoblotting, 15 patients
Experimental: The peptides are redissolved in a PBS buffer, pH 7.4 and diluted in order to obtain concentrations of 0.1, 0.2, 0.5 and 1 μg/ml; 100 μl per well of each peptide solution are incubated overnight in microtitre plates containing 96 wells (IMMULON2a commercially available ELISAPLATE, Dynatech, Poly-Labo, Paris--FRANCE). The ELISA analysis is then performed as described in GUEGUEN M. et al., (Biochem. Biophys. Res. Commun., 1989, 159, 542), using the various human sera described above. The first antibodies are tested at dilutions ranging from 1/100 to 1/12,800. The alkaline phosphatase-conjugated goat anti-human IgG antibody is used as second antibody at a dilution of 1/1000. The test is developed by adding 100 μl of p-nitrophenyl phosphate at a concentration of 1 mg/ml in a 0.05M NaCO3 buffer, pH 9.8 and 0.001M MgCl2. The results read after incubating for 30 minutes at room temperature are considered positive when they are higher by a factor of 2 compared with the control serum.

[2] = test system: anti-LKM autoantibodies; assay: Peptide fragments used as diagnostic reagents for autoimmune hepatitis; format: binding, human
[3] = test system: anti-LKM antibodies (LKM-positive sera); assay: Immunoblotting of cytochrome P450 IID6 peptides with LKM-positive sera; format: binding, human
Experimental: (§1) The expression of the fusion proteins from the cDNA constructs is described by STANLEY (Nucleic Acids Research, 1983, 11, 4077). 100 μl culture samples, for each fusion protein, are subjected to electrophoresis on an 8-20% SDS-polyacrylamide gel, transferred onto nitrocellulose and analysed by the immunoblot technique.
(§2) The first antibodies used for the immunoblot method are:
(§3) 1) sera from patients responding positively to the anti-LKM antibodies;
(§4) Depending on the origin of the first antibody, the second antibody is either a peroxydase-goat anti-human IgG conjugate, or a peroxydase-goat anti-mouse IgG conjugate (Biosys), at a dilution of 1/1000.
The different peptides and especially peptides 254-271 (peptide of formula II) , 264-281 and 410-429 (peptide of formula X), are coupled to BSA via their free NH2 -terminal group, using glutaraldehyde (see especially E. HARLOW and D. LANE, 1988, Antibodies, A laboratory manual, Cold Spring Harbor Laboratory).

[4] = test system: anti-LKM antibodies (LKM-positive sera); assay: Immunoblot analysis of the fusion proteins P450 IID6/β-gal with LKM-positive sera; format: binding, human; details: eleven sera tested; FIG. 2
Experimental: b) Expression and immunoblot analysis of the fusion proteins obtained from the various constructs of pEX-627-LKMHC5 and pEX-627-LKMC1/BamHI.
as §1, §2, §3, §4
Rat liver and human liver microsomes and β-galactosidase, expressed by the plasmid pEX-627 not comprising the P450 DNA insert, are included on the same gels as positive controls and negative control respectively.

Molecule: EKPYPEHFLDAQGHFVKPEA [Peptide of formula X, amino acids 410-429 of human cytochrome P450 IID6]
- number of patients whose sera recognize the peptide [1]: 2 patients/15
- positive response in patients suffering from autoimmune hepatitis [2]: positive response in most patients

- number of patients whose sera recognize the peptide [1]: 1 patients/15
Molecule: GMTHMTSRDIGVQGFRI [Peptide of formula IX, Gly-Met-Thr-His-Met-Thr-Ser-Arg-Asp-Ile-Gly-Val-Gln-Gly-Phe-Arg-Ile]

- recognized by LKM-positive sera when tested by ELISA [1]: recognized by all the LKM-positivesera
- recognized by LKM-positive sera when tested by immunoblotting [3]: recognized by all the LKM-positivesera
Molecule: LLTEHRMTWDPAQPPRDL [Peptide of formula II, Leu-Leu-Thr-Glu-His-Arg-Met-Thr-Trp-Asp-Pro-Ala-Gln-Pro-Pro-Arg-Asp-Leu]

- number of patients whose sera recognize the peptide [1]: 8 patients/15
Molecule: MILHPDVQRRVQQEIDDVIGQVRRPEMGDQA [Peptide of formula Va]
- positive response in patients suffering from autoimmune hepatitis [2]: positive response in most patients

B1: LKMC1/BamHI: fusion protein from EcoRI-BamHI fragment of LKMC1, cDNA clone encoding rat cytochrome P450 db2, in plasmid pEX-627 (protein)
chain: MGLLIGDDLWAVVIFTAIFLLLVDLVHRHKFWTAHYPPGPVPLPGLGNLLQVDFENMPYSLYKLRSRYGDVFSLQIAWKPVVVINGLKAVRELLVTYGEDTADRPLLPIYNHLGYGNKSKGVVLAPYGPEWREQRRFSVSTLRDFGVGKKSLEQWVTEEAGHLCDTFAKEAEHPFNPSILLSKAVSNVIASLVYARRFEYEDPFFNRMLKTLKESFGEDTGFMAEVLNAIPILLQIPGLPGKVFPKLNSFIALVDKMLIEHKKSWD
- recognition of fusion protein by LKM-positive sera on the immunoblots [4]: None of the sera of the patients tested recognizes
